Measured values reported in PubChem BioAssay (NCI).
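These data come from cells grown in 96-well plates and exposed to compound for 48 hours at five concentrations. TGI denotes the concentration required for complete inhibition of growth.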

How the values were obtained:
Assay in all cases: growth of human tumour cells (NCI), 48 h
EKVX NSCLC = test system: EKVX NSCLC
HCC-2998 colon = test system: HCC-2998 colon
HCT-116 colon = test system: HCT-116 colon
HCT-15 colon = test system: HCT-15 colon
HL-60(TB) leukemia = test system: HL-60(TB) leukemia
HT29 colon = test system: HT29 colon
NCI-H23 lung = test system: NCI-H23 lung
OVCAR-8 ovarian = test system: OVCAR-8 ovarian
RXF 393 renal = test system: RXF 393 renal
SF-295 CNS = test system: SF-295 CNS
SF-539 CNS = test system: SF-539 CNS
UACC-257 melanoma = test system: UACC-257 melanoma
UO-31 renal = test system: UO-31 renal
DU-145 prostate = test system: DU-145 prostate
MCF7 breast = test system: MCF7 breast
MDA-MB-231 breast = test system: MDA-MB-231 breast
T-47D breast = test system: T-47D breast

| SMILES | TGI (EKVX NSCLC) | TGI (HCC-2998 colon) | TGI (HCT-116 colon) | TGI (HCT-15 colon) | TGI (HL-60(TB) leukemia) | TGI (HT29 colon) | TGI (NCI-H23 lung) | TGI (OVCAR-8 ovarian) | TGI (RXF 393 renal) | TGI (SF-295 CNS) | TGI (SF-539 CNS) | TGI (UACC-257 melanoma) | TGI (UO-31 renal) | TGI (DU-145 prostate) | TGI (MCF7 breast) | TGI (MDA-MB-231 breast) | TGI (T-47D breast) |
| --- | --- | --- | --- | --- | --- | --- | --- | --- | --- | --- | --- | --- | --- | --- | --- | --- | --- |
| COc1ccc(N2C(=O)C3c4[nH]c5ccc(OC)cc5c4C4CCC(C(C)(C)C)CC4C3C2=O)cc1 (stereo not given) | 92.3 µM | > 100 µM | 26.1 µM | > 100 µM | > 100 µM | > 100 µM | 80.8 µM | > 100 µM | 58.1 µM | 32.8 µM | 55.1 µM | > 100 µM | > 100 µM |  |  |  |  |
| COc1cccc2c1CCc1ccccc1CC2=O | > 100 µM | > 100 µM | > 100 µM | > 100 µM | > 100 µM | > 100 µM | > 100 µM | > 100 µM | > 100 µM | > 100 µM | > 100 µM | > 100 µM | > 100 µM |  |  |  |  |
| COc1ccc(CN2C[C@H]3[C@@H](CC(=O)O[C@H]3C)CC2=O)cc1 | > 100 µM | > 100 µM | > 100 µM | > 100 µM |  | > 100 µM | > 100 µM | > 100 µM | > 100 µM | > 100 µM |  | > 100 µM | > 100 µM | > 100 µM | > 100 µM | > 100 µM |  |
| CC1Cc2c(Br)nc(N)nc2NC1=O (stereo not given) | > 100 µM | > 100 µM | > 100 µM | > 100 µM |  | > 100 µM | > 100 µM | > 100 µM |  | > 100 µM | > 100 µM | > 100 µM | > 100 µM | > 100 µM | > 100 µM | > 100 µM | > 100 µM |
| C=CC(Cl)(CBr)CCC(Br)=C(C)C (stereo not given) | > 100 µM | 44.5 µM | 63 µM | 35.9 µM |  | 39.8 µM | 68.5 µM | 64.6 µM | 38.5 µM | > 100 µM | 44 µM | 59.5 µM | 37.4 µM | > 100 µM | 31.5 µM | 37.5 µM |  |
| N#Cc1ccc(Oc2nc3ccccc3nc2-c2ccccc2)cc1 | > 100 µM | > 100 µM | > 100 µM | > 100 µM | > 100 µM | > 100 µM | > 100 µM |  | > 100 µM | > 100 µM |  | > 100 µM | > 100 µM | > 100 µM | > 100 µM | > 100 µM |  |
| COc1ccccc1C1SCC(=O)N1c1ccc(-n2c(-c3ccccc3)nc3ccccc3c2=O)cc1 (stereo not given) | > 100 µM | > 100 µM | > 100 µM | > 100 µM |  | > 100 µM | > 100 µM | > 100 µM |  | > 100 µM | > 100 µM | > 100 µM | > 100 µM | > 100 µM | > 100 µM | > 100 µM | > 100 µM |
| COc1c(C)c(C/C=C(\C)CCCCO[Si](C(C)C)(C(C)C)C(C)C)c(OC)c2ccccc12 | > 100 µM |  | > 100 µM | > 100 µM |  | > 100 µM | > 100 µM | > 100 µM | > 100 µM | > 100 µM | > 100 µM | > 100 µM | > 100 µM | > 100 µM | > 100 µM | > 100 µM |  |
| O=C1CCCCC1CN1CCCC1 (stereo not given) | > 100 µM | > 100 µM | > 100 µM | > 100 µM |  | > 100 µM | > 100 µM | > 100 µM |  | > 100 µM |  | > 100 µM |  |  |  |  |  |
| CC(=O)c1cccc(NC(=O)/C(=N\NC(C)(C)C)c2c(O)c3ccccc3oc2=O)c1 | > 100 µM | > 100 µM | > 100 µM | > 100 µM | > 100 µM | > 100 µM | > 100 µM | > 100 µM | > 100 µM | > 100 µM | > 100 µM | > 100 µM | > 100 µM |  |  |  |  |
| CNC(=O)CN(CC(=O)NC)C(=O)NC | > 100 µM | > 100 µM |  | > 100 µM | > 100 µM | > 100 µM | > 100 µM | > 100 µM | > 100 µM | > 100 µM | > 100 µM | > 100 µM | > 100 µM |  |  |  |  |
| C/C=C(C)/C=C/CC(C)CCC=C(C)C (stereo not given) | > 100 µM |  | > 100 µM | > 100 µM | > 100 µM | > 100 µM |  | > 100 µM | > 100 µM | > 100 µM | > 100 µM | > 100 µM | > 100 µM | > 100 µM | > 100 µM | > 100 µM |  |
| CN(C)c1ccc(-c2cc(=O)c3cc4c(cc3[nH]2)OCO4)cc1 | > 100 µM | > 100 µM | > 100 µM | > 100 µM | > 100 µM | > 100 µM | > 100 µM | > 100 µM | > 100 µM | > 100 µM | > 100 µM | > 100 µM | > 100 µM |  |  |  |  |
| COc1ccc2cc(C(C)C(O)c3cc(F)c(F)c(F)c3F)ccc2c1 (stereo not given) | > 100 µM | > 100 µM | > 100 µM | > 100 µM | > 100 µM | > 100 µM | > 100 µM | > 100 µM |  | > 100 µM |  | > 100 µM | > 100 µM | > 100 µM | > 100 µM | > 100 µM | > 100 µM |
| COC(=O)c1ccc(OCc2ccc3nc(OC)c(OC)nc3c2)cc1 | > 100 µM | > 100 µM | > 100 µM | > 100 µM | > 100 µM | > 100 µM | > 100 µM | > 100 µM |  | > 100 µM | > 100 µM | > 100 µM | > 100 µM |  |  |  |  |
| CCOP(C)(=O)C(Cc1c[nH]c2ccccc12)C(=O)O (stereo not given) | > 100 µM | > 100 µM | > 100 µM | > 100 µM | > 100 µM | > 100 µM |  | > 100 µM |  | > 100 µM | > 100 µM |  | > 100 µM | > 100 µM | > 100 µM | > 100 µM | > 100 µM |
